Source: US7125662B2, “Method of identifying putative antibiotic resistance genes” (priority 2000, dated 2006)
Values after ≈ are worked out from the molar mass of the structure shown.

What was measured:
[1] = system: Salmonella enteritidis serovar typhimurium strain LT2; assay: MIC, native Salmonella strain LT2; assay type: cell-based; settings: for MIC: Salmonella enterica, read-out: Minimum Inhibitory Concentration; for sensitivity of the strain to the drug: native strain LT2
DH5α-E/pAAC(6′)-Iaa = assay: MIC, transgenic host expressing AAC(6′)-Iaa; assay type: cell-based, E. coli; settings: for MIC: Escherichia coli, read-out: Minimum Inhibitory Concentration; for resistance conferred by plasmid pAAC(6′)-Iaa: transformed into E. coli strain DH5α-E
Experimental: (§1) The putative AAC(6′) aminogylcoside N6′-acetyltransferase gene from Salmonella enteritidis serovar typhimurium strain LT2, designated AAC(6′)-Iaa, was amplified by PCR and cloned into the expression vector pACSE2 (U.S. patent application Ser. No. 09/640,882 to Hall, filed Aug. 18, 2000, which is hereby incorporated by reference in its entirety). The resulting plasmid was designated pAAC(6′)-Iaa (FIG. 2A). The sequence of the AAC(6′)-Iaa coding region was determined by automated DNA sequencing and was confirmed to be identical to the sequence obtained from the incomplete genome sequence database (FIG. 2B).

[2] = cited from earlier work; for Minimum Inhibitory Concentration, Clinical Resistance: Table 2, aminoglycosides; for Clin. = the MIC for clinical resistance: Table 1, β-lactams, unit assumed
DH5α-E/pACSE2 = assay: MIC, host with empty expression vector; assay type: cell-based, E. coli; settings: for MIC: Escherichia coli, read-out: Minimum Inhibitory Concentration
Experimental: as §1

[3] = system: host expressing Citrobacter freundii ampC gene CMY3b; assay: MIC conferred by ampC gene CMY3b cloned into common vector; assay type: cell-based
Description: (§2) The plasmid-borne ampC genes shown in Table 1 (below) have been cloned into a common vector to ensure that all genes are expressed at the same level. […] That is completely expected because those genes were isolated from clinical samples and identified on the basis of conferring resistance to clinical drugs. ampC genes from two strains of Citrobacter freundii that were isolated in the 1920's, in the pre-antibiotic era, were also cloned into the same vector.

[4] = system: plasmid-borne ampC genes CMY-2, CMY-3b, LAT-1, LAT-2, LAT-3, and LAT-4; assay: Clinical resistance conferred by plasmid-borne ampC genes as a group; assay type: cell-based, Citrobacter freundii; settings: all of CMY-2, CMY-3b, LAT-1, LAT-2, LAT-3, LAT-4
Description: (§3) The plasmid-borne ampC genes shown in Table 1 (below) have been cloned into a common vector to ensure that all genes are expressed at the same level.

[5] = system: host expressing Citrobacter freundii ampC gene Cfre6879; assay: MIC conferred by ampC gene Cfre6879 cloned into common vector; assay type: cell-based; settings: Cfre 6879, gene from organism isolated in the 1920's
Description: as §2

[6] = system: host expressing Citrobacter freundii ampC gene Cfre8454; assay: MIC conferred by ampC gene Cfre8454 cloned into common vector; assay type: cell-based; settings: for Minimum Inhibitory Concentration (MIC): Cfre 8454, gene from organism isolated in the 1920's
Description: as §2

[7] = system: host expressing Citrobacter freundii ampC gene LAT4; assay: MIC conferred by ampC gene LAT4 cloned into common vector; assay type: cell-based
Description: as §2

[8] = system: host expressing Citrobacter freundii ampC gene CMY2; assay: MIC conferred by ampC gene CMY2 cloned into common vector; assay type: cell-based
Description: as §2

[9] = system: host expressing Citrobacter freundii ampC gene LAT2; assay: MIC conferred by ampC gene LAT2 cloned into common vector; assay type: cell-based
Description: as §2

[10] = system: host expressing Citrobacter freundii ampC gene LAT1; assay: MIC conferred by ampC gene LAT1 cloned into common vector; assay type: cell-based
Description: as §2

[11] = system: host expressing Citrobacter freundii ampC gene LAT3; assay: MIC conferred by ampC gene LAT3 cloned into common vector; assay type: cell-based
Description: as §2

E. coli K12 ampC = settings: gene cloned into a plasmid, effective promoter; cited from earlier work
No Plasmid host = assay: MIC, host with no plasmid (Table 1); assay type: cell-based
Description: as §3

[12] = system: evolved E. coli ampC gene; settings: two or three laboratory-induced mutations; cited from earlier work
[13] = S. enteritidis serovar typhimurium LT2

Compound | Minimum Inhibitory Concentration (MIC) [3] | clinical resistance conferred [4] | Minimum Inhibitory Concentration (MIC) [5] | Minimum Inhibitory Concentration (MIC) [6] | Minimum Inhibitory Concentration (MIC) [7] | Minimum Inhibitory Concentration (MIC) [8] | Minimum Inhibitory Concentration (MIC) [9] | Minimum Inhibitory Concentration (MIC) [10] | Minimum Inhibitory Concentration (MIC) [11] | Clin. = the MIC for clinical resistance [2] [µg/mL] | Minimum Inhibitory Concentration (MIC) (No Plasmid host) | resistance conferred after further evolution [12] | other results
NC[C@H]1O[C@H](O[C@H]2[C@H](O)[C@@H](O[C@H]3O[C@H](CO)[C@@H](O)[C@H](N)[C@H]3O)[C@H](N)C[C@@H]2N)[C@H](N)C[C@@H]1O [Tobramycin] | – | – | – | – | – | – | – | – | – | – | – | – | MIC [1, 13]: 4 µg/mL (≈ 8.56 µM); sensitivity of the strain to the drug [1]: sensitive; MIC (DH5α-E/pAAC(6′)-Iaa; DH5α-E/pAAC(6′)-Iaa): 16 µg/mL (≈ 34.2 µM); resistance conferred by plasmid pAAC(6′)-Iaa (DH5α-E/pAAC(6′)-Iaa): conferred resistance; Minimum Inhibitory Concentration, Clinical Resistance [2]: 8 µg/mL; MIC (DH5α-E/pACSE2): 0.25 µg/mL (≈ 0.535 µM)
CO/N=C(\C(=O)N[C@@H]1C(=O)N2C(C(=O)O)=C(COC(N)=O)CS[C@H]12)c1ccco1 [Cefuroxime] | 1024 | confer clinical resistance | 512 | 512 | 2048 | 256 | 256 | 2048 | 1024 | 32 | 8 | – | clinical resistance conferred (E. coli K12 ampC): confers clinical resistance
NC[C@H]1O[C@H](O[C@H]2[C@H](O)[C@@H](O[C@H]3O[C@H](CO)[C@@H](O)[C@H](N)[C@H]3O)[C@H](N)C[C@@H]2N)[C@H](O)[C@@H](O)[C@@H]1O [Kanamycin] | – | – | – | – | – | – | – | – | – | – | – | – | MIC [1, 13]: 4 µg/mL (≈ 8.26 µM); MIC (DH5α-E/pAAC(6′)-Iaa; DH5α-E/pAAC(6′)-Iaa): 32 µg/mL (≈ 66 µM); MIC (DH5α-E/pACSE2): 0.125 µg/mL (≈ 0.258 µM)
CC1(C)S[C@@H]2[C@H](NC(=O)[C@H](N)c3ccccc3)C(=O)N2[C@H]1C(=O)O [Ampicillin] | 1024 | confer clinical resistance | 1024 | 2048 | 1024 | 1024 | 2048 | 1024 | 1024 | 32 | 2 | – | clinical resistance conferred (E. coli K12 ampC): confers clinical resistance
CO[C@@]1(NC(=O)C(C(=O)O)c2ccsc2)C(=O)N2[C@@H](C(=O)O)C(C)(C)S[C@@H]21 (some centres unmarked) [Temocillin] | 32 | confer clinical resistance | 32 | 32 | 64 | 32 | 32 | 64 | 64 | 32 | 4 | confer resistance | –
NCC[C@H](O)C(=O)N[C@@H]1C[C@H](N)[C@@H](O[C@H]2O[C@H](CN)[C@@H](O)[C@H](O)[C@H]2O)[C@H](O)[C@H]1O[C@H]1O[C@H](CO)[C@@H](O)[C@H](N)[C@H]1O [Amikacin] | – | – | – | – | – | – | – | – | – | – | – | – | MIC [1, 13]: 4 µg/mL (≈ 6.83 µM); sensitivity of the strain to the drug [1]: sensitive; MIC (DH5α-E/pAAC(6′)-Iaa; DH5α-E/pAAC(6′)-Iaa): 8 µg/mL (≈ 13.7 µM); resistance conferred by plasmid pAAC(6′)-Iaa (DH5α-E/pAAC(6′)-Iaa): not; Minimum Inhibitory Concentration, Clinical Resistance [2]: 32 µg/mL; MIC (DH5α-E/pACSE2): 0.25 µg/mL (≈ 0.427 µM)
CO/N=C(\C(=O)N[C@@H]1C(=O)N2C(C(=O)O)=C(COC(C)=O)CS[C@H]12)c1csc(N)n1 [Cefotaxime] | 64 | confer clinical resistance | 128 | 128 | 256 | 64 | 64 | 64 | 128 | 64 | – | – | –
Gentamycin | – | – | – | – | – | – | – | – | – | – | – | – | Minimum Inhibitory Concentration [1, 13]: 2 µg/mL; sensitivity of the strain to the drug [1]: sensitive; Minimum Inhibitory Concentration (DH5α-E/pAAC(6′)-Iaa; DH5α-E/pAAC(6′)-Iaa): 0.5 µg/mL; resistance conferred by plasmid pAAC(6′)-Iaa (DH5α-E/pAAC(6′)-Iaa): not; Minimum Inhibitory Concentration, Clinical Resistance [2]: 8 µg/mL; Minimum Inhibitory Concentration (DH5α-E/pACSE2): 0.25 µg/mL
CCN1CCN(C(=O)N[C@@H](C(=O)N[C@@H]2C(=O)N3[C@@H]2SC(C)(C)[C@@H]3C(=O)O)c2ccccc2)C(=O)C1=O [Pipericillin] | 128 | confer clinical resistance | 512 | 512 | 512 | 256 | 256 | 128 | 512 | 128 | 2 | confer resistance | –
C[C@H]1[C@H](NC(=O)/C(=N\OC(C)(C)C(=O)O)c2csc(N)n2)C(=O)N1S(=O)(=O)O [Aztreonam] | 128 | – | 256 | 128 | 128 | 16 | 64 | 256 | 64 | – | – | confer resistance | –
CC(C)(O/N=C(\C(=O)N[C@@H]1C(=O)N2C(C(=O)[O-])=C(C[n+]3ccccc3)CS[C@H]12)c1csc(N)n1)C(=O)O [Ceftazidime] | 256 | confer clinical resistance | 512 | 8 | 256 | 128 | 256 | 256 | 256 | 32 | 0.25 | confer resistance | resistance conferred ([6]; Cfre8454, without any additional mutations): does not confer clinical resistance
